Seven compounds from DBAASP can be followed below.

In brackets after ≈: the same amount, converted by molar mass.

In general, MIC refers to the least concentration at which growth counts as inhibited. Low values mean inhibition by little substance, high ones a need for much substance.

Test systems include Candida albicans C627; Escherichia coli DC2; Escherichia coli UB1005; Escherichia coli; Streptococcus pneumoniae; Saccharomyces cerevisiae; Pseudomonas putida; Salmonella typhimurium; Staphylococcus aureus; Cryptococcus neoformans; Streptococcus mutans; Candida albicans; Bacillus subtilis; Serratia marcescens; Aerococcus viridans; Bacillus megaterium; Micrococcus luteus.
What all share (assay): ≥ marks a high value that may be exact or a test limit, other limits are often not marked, values filed in µg/mL are converted to µM
Test [1] relates to Aeromonas salmonicida 99-1.
The test system of test [2] is Salmonella enterica serovar typhimurium MS7953s.
For test [3], the system named is Aeromonas salmonicida 97-4.
The test system of test [4] is Staphylococcus epidermidis C621.
The subject of test [5] is Staphylococcus aureus C623.
The test system of test [6] is Pseudomonas aeruginosa Z61.
Test [7] relates to Salmonella enterica subsp. enterica serovar Typhimurium ATCC 14028s.
Test [8] deals with Pseudomonas aeruginosa K799.
Test [9] has as its system Escherichia coli CGSC 4908.
For test [10], the system named is Salmonella enterica subsp. enterica serovar Typhimurium ATCC 14028.
Test [11] relates to Pseudomonas aeruginosa PAO1.
In test [12] the test system is Salmonella typhimurium ATCC 7731.
The test system of test [13] is Pseudomonas aeruginosa ATCC 27853.
The test system of test [14] is Staphylococcus aureus ATCC 29213.
Test [15] concerns Bacillus subtilis CMCC 63501.
The test system of test [16] is Enterococcus faecalis ATCC 29212.
The test system of test [17] is Escherichia coli ATCC 25922.
Test [18] relates to Staphylococcus epidermidis ATCC 12228.
For test [19], the system named is Bacillus subtilis ATCC 23857.
Test [20] concerns Cryptococcus neoformans ATCC 28957.
Test [21] deals with Staphylococcus aureus ATCC 25923.

For `CC[C@H](C)[C@H](NC(=O)[C@H](C)NC(=O)CNC(=O)[C@H](Cc1cnc[nH]1)NC(=O)[C@@H](NC(=O)[C@H](Cc1ccccc1)NC(=O)[C@H](CCCCN)NC(=O)CNC(=O)[C@H](C)NC(=O)[C@H](CCCCN)NC(=O)[C@H](Cc1ccccc1)NC(=O)[C@@H](NC(=O)[C@H](Cc1cnc[nH]1)NC(=O)[C@H](CCCCN)NC(=O)[C@H](Cc1ccccc1)NC(=O)[C@@H](NC(=O)[C@H](CO)NC(=O)CNC(=O)[C@H](Cc1c[nH]c2ccccc12)NC(=O)CNC(=O)[C@H](C)N)[C@@H](C)CC)[C@@H](C)CC)[C@@H](C)CC)C(=O)N[C@@H](CCC(N)=O)C(=O)N[C@@H](C)C(=O)N[C@@H](Cc1cnc[nH]1)C(=O)N[C@@H](CC(N)=O)C(=O)N[C@@H](CC(=O)O)C(C)=O` [AGWGSIFKHIFKAGKFIHGAIQAHND], the MIC was found to be 11.2 µM (≈ 32 µg/mL) in [1]; 22.4 µM (≈ 64 µg/mL) in the test on Candida albicans C627; 5.61 µM (≈ 16 µg/mL) in [2]; 5.61 µM (≈ 16 µg/mL) in test [3]; 5.61 µM (≈ 16 µg/mL) in test [4]; 5.61 µM (≈ 16 µg/mL) with Escherichia coli DC2. For the same compound, the MIC was determined as 5.61 µM (≈ 16 µg/mL) in test [5]; 2.81 µM (≈ 7.99 µg/mL) in test [6]; 22.4 µM (≈ 64 µg/mL) in test [7]; 11.2 µM (≈ 32 µg/mL) in [8]; 5.61 µM (≈ 16 µg/mL) in [9]; 5.61 µM (≈ 16 µg/mL) in the test with Escherichia coli UB1005.
In the case of `CC[C@H](C)[C@H](NC(=O)[C@H](CCC(=O)O)NC(=O)CNC(=O)[C@@H](NC(=O)[C@H](Cc1ccccc1)NC(=O)[C@H](C)NC(=O)[C@H](CCCCN)NC(=O)CNC(=O)[C@H](Cc1ccccc1)NC(=O)[C@H](CCCCN)NC(=O)[C@H](CCCCN)NC(=O)[C@H](C)N)C(C)C)C(=O)N[C@@H](CCSC)C(N)=O` [AKKFGKAFVGEIM], the MIC in test [10] was greater than 64 µM; in [11], greater than 64 µM; in test [12], no less than 64 µM; in [13], greater than 64 µM; in test [14] it was greater than 64 µM; in [15], no less than 64 µM. In addition, the MIC in test [16] was greater than 64 µM; in test [17] it was 32 µM (≈ 45.6 µg/mL); in test [18] it was greater than 64 µM; against Escherichia coli UB1005, no less than 64 µM.
Consider `CC(C)C[C@H](NC(=O)CN)C(=O)N[C@@H](CCC(N)=O)C(=O)N[C@@H](Cc1ccccc1)C(=O)N1CCC[C@H]1C(=O)N[C@H](C(=O)NCC(=O)N[C@@H](CCCN=C(N)N)C(=O)N[C@H](C(=O)N[C@@H](Cc1cnc[nH]1)C(=O)N[C@@H](CCCN=C(N)N)C(=O)N[C@@H](CC(C)C)C(=O)N[C@@H](CC(C)C)C(=O)N[C@@H](CCCN=C(N)N)C(=O)N[C@@H](CCCCN)C(=O)O)C(C)C)C(C)C` [GLQFPVGRVHRLLRK], for which the MIC was found to be 2.25 µM (≈ 4 µg/mL) in the test on Escherichia coli; 2.25 µM (≈ 4 µg/mL) against Streptococcus pneumoniae; 4.5 µM (≈ 8 µg/mL) in the test on Saccharomyces cerevisiae; 2.25 µM (≈ 4 µg/mL) in the test on Pseudomonas putida; 1.13 µM (≈ 2 µg/mL) against Salmonella typhimurium; 4.5 µM (≈ 8 µg/mL) against Staphylococcus aureus. Moreover, the MIC in the test on Cryptococcus neoformans worked out at 4.5 µM (≈ 8 µg/mL); against Streptococcus mutans it was 2.25 µM (≈ 4 µg/mL); against Candida albicans, 4.5 µM (≈ 8 µg/mL); against Bacillus subtilis, 2.25 µM (≈ 4 µg/mL); in the test with Serratia marcescens, 1.13 µM (≈ 2 µg/mL).
With `CC[C@H](C)[C@H](NC(=O)[C@H](Cc1ccccc1)NC(=O)[C@H](CC(N)=O)NC(=O)[C@H](Cc1ccc(O)cc1)NC(=O)[C@H](CC(C)C)NC(=O)CN)C(=O)N[C@@H](CCCCN)C(=O)N[C@H](C(=O)N[C@@H](CC(C)C)C(=O)NCC(=O)N[C@@H](CCCN=C(N)N)C(=O)N[C@H](C(=O)N[C@H](C(=O)N[C@@H](Cc1ccccc1)C(=O)NCC(=O)N[C@@H](CC(C)C)C(=O)N[C@@H](Cc1ccc(O)cc1)C(=O)N[C@@H](CCCCN)C(=O)N[C@@H](CCC(N)=O)C(=O)N[C@@H](Cc1ccccc1)C(N)=O)C(C)C)[C@@H](C)O)C(C)C` [GLYNFIKVLGRTVFGLYKQF], the MIC in test [19] is no less than 256 µM; in test [20], no less than 64 µM; in [21] it was 16 µM (≈ 37.8 µg/mL).
As for `CC[C@H](C)[C@H](NC(=O)[C@H](C)NC(=O)[C@@H](NC(=O)[C@@H]1CCCN1C(=O)[C@@H](NC(=O)[C@H](CC(C)C)NC(=O)[C@@H]1CCCN1C(=O)[C@H](Cc1c[nH]c2ccccc12)NC(=O)[C@H](Cc1ccccc1)NC(=O)[C@H](CCCN=C(N)N)NC(=O)[C@@H](N)CCCCN)C(C)C)C(C)C)C(=O)N[C@@H](CC(N)=O)C(=O)N[C@H](C(=O)N[C@H](C(=O)N[C@@H](C)C(N)=O)C(C)C)[C@@H](C)O` [KRFWPLVPVAINTVA], the MIC in [10] was greater than 128 µM; in [12], no less than 128 µM; in test [13], greater than 128 µM; in test [14], greater than 128 µM; in test [15], no less than 128 µM; in [17], greater than 128 µM. The values for the minimum inhibitory concentration (MIC) (in test [18]; against Escherichia coli UB1005) were 128 µM (≈ 219 µg/mL) and no less than 64 µM, respectively.
Take `CC[C@H](C)[C@H](NC(=O)CNC(=O)CNC(=O)[C@@H](NC(=O)[C@@H]1CCCN1C(=O)[C@H](Cc1ccccc1)NC(=O)[C@H](CCC(N)=O)NC(=O)[C@H](CC(C)C)NC(=O)CNC(=O)[C@H](C)NC(=O)[C@@H](N)CCCN=C(N)N)C(C)C)C(=O)NCC(=O)N[C@@H](CCCCN)C(=O)N[C@@H](Cc1ccccc1)C(=O)N[C@@H](CC(C)C)C(=O)N[C@@H](Cc1cnc[nH]1)C(=O)N[C@@H](CO)C(=O)N[C@@H](C)C(=O)N[C@@H](CCCCN)C(=O)N[C@@H](CCCCN)C(=O)N[C@@H](Cc1ccccc1)C(=O)NCC(=O)N[C@@H](CCCCN)C(=O)O` [RAGLQFPVGGIGKFLHSAKKFGK]: the MIC came out at 6.55 µM (≈ 16 µg/mL) in the test with Escherichia coli; 6.55 µM (≈ 16 µg/mL) against Streptococcus pneumoniae; 1.64 µM (≈ 4 µg/mL) in the test on Saccharomyces cerevisiae; 13.1 µM (≈ 32 µg/mL) against Pseudomonas putida; 3.27 µM (≈ 8 µg/mL) against Salmonella typhimurium; 6.55 µM (≈ 16 µg/mL) in the test with Staphylococcus aureus. Moreover, the MIC in the test with Cryptococcus neoformans stood at 1.64 µM (≈ 4 µg/mL); against Streptococcus mutans, 6.55 µM (≈ 16 µg/mL); against Candida albicans, 1.64 µM (≈ 4 µg/mL); against Bacillus subtilis it was 6.55 µM (≈ 16 µg/mL); against Serratia marcescens, 6.55 µM (≈ 16 µg/mL).
In the case of `CSCC[C@H](NC(=O)[C@H](CCCN=C(N)N)NC(=O)[C@H](CCC(N)=O)NC(=O)[C@@H]1CSSC[C@H](NC(=O)[C@@H](N)Cc2ccc(O)cc2)C(=O)N[C@@H](CC(N)=O)C(=O)N[C@@H](CCCN=C(N)N)C(=O)N[C@@H](CCCN=C(N)N)C(=O)N[C@@H]([C@@H](C)O)C(=O)NCC(=O)N[C@@H](CCCCN)C(=O)N1)C(=O)O` [YCNRRTGKCQRM], the minimal inhibitory concentration (MIC) against Aerococcus viridans, against Bacillus megaterium and with Micrococcus luteus was 28.3 µM (≈ 42.8 µg/mL) each time.
